In PubChem BioAssay AID2060486 (Molecular Pharmacology Branch, DTP, NCI, 2025):

Test system: IGROV1 complex spheroids (HUVEC, MSC), viability % test/control
Experiment: Anticancer human tumor IGROV1 cell line growth inhibition [GQUAD];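 note: spheroids exposed to compounds for 7 days before readout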;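 for viability, T/C: 100% = DMSO vehicle control viability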
Conditions: for IC50: curve of first compound; for viability, T/C: stronger effect = lower value
Procedure, shortened: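 Multi-cell-type spheroids of tumor cells with HUVEC and mesenchymal stem cells, treated with drug combinations. Concentrations descend in half-log steps from near clinical Cmax, or from 10 microM where Cmax is unknown; viability read-out.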

## CC(=O)O[C@H]1C(=O)[C@@]2(C)[C@H]([C@H](OC(=O)c3ccccc3)[C@]3(O)C[C@H](OC(=O)[C@H](O)[C@@H](NC(=O)c4ccccc4)c4ccccc4)C(C)=C1C3(C)C)[C@]1(OC(C)=O)CO[C@@H]1C[C@@H]2O + Cc1[nH]c2ccc(F)cc2c1-c1nc2c3cccnc3c3ncccc3c2[nH]1
Second compound 0.0316 µM
  IC50: < 31.6 nM
Second compound 0.1 µM
  IC50: < 31.6 nM
Second compound 0.316 µM
  IC50: < 31.6 nM
Second compound 1 µM
  IC50: < 31.6 nM
Second compound 3.16 µM
  IC50: < 31.6 nM
Second compound 10 µM
  IC50: < 31.6 nM
Second compound 0.0316 µM, first compound 0.0316 µM
  viability, T/C: 8.39%
Second compound 0.0316 µM, first compound 0.1 µM
  viability, T/C: 5.36%
Second compound 0.0316 µM, first compound 0.316 µM
  viability, T/C: 5.66%
Second compound 0.0316 µM, first compound 1 µM
  viability, T/C: 4.68%
Second compound 0.0316 µM, first compound 3.16 µM
  viability, T/C: 4.86%
Second compound 0.0316 µM, first compound 10 µM
  viability, T/C: 4.6%
Second compound 0.1 µM, first compound 0.0316 µM
  viability, T/C: 7.76%
Second compound 0.1 µM, first compound 0.1 µM
  viability, T/C: 6.43%
Second compound 0.1 µM, first compound 0.316 µM
  viability, T/C: 6.02%
Second compound 0.1 µM, first compound 1 µM
  viability, T/C: 4.48%
Second compound 0.1 µM, first compound 3.16 µM
  viability, T/C: 4.3%
Second compound 0.1 µM, first compound 10 µM
  viability, T/C: 4.13%
Second compound 0.316 µM, first compound 0.0316 µM
  viability, T/C: 4.55%
Second compound 0.316 µM, first compound 0.1 µM
  viability, T/C: 3.65%
Second compound 0.316 µM, first compound 0.316 µM
  viability, T/C: 3.47%
Second compound 0.316 µM, first compound 1 µM
  viability, T/C: 3.01%
Second compound 0.316 µM, first compound 3.16 µM
  viability, T/C: 2.72%
Second compound 0.316 µM, first compound 10 µM
  viability, T/C: 2.99%
Second compound 1 µM, first compound 0.0316 µM
  viability, T/C: 2.66%
Second compound 1 µM, first compound 0.1 µM
  viability, T/C: 2.5%
Second compound 1 µM, first compound 0.316 µM
  viability, T/C: 2.5%
Second compound 1 µM, first compound 1 µM
  viability, T/C: 2.49%
Second compound 1 µM, first compound 3.16 µM
  viability, T/C: 2.3%
Second compound 1 µM, first compound 10 µM
  viability, T/C: 2.06%
Second compound 3.16 µM, first compound 0.0316 µM
  viability, T/C: 2.72%
Second compound 3.16 µM, first compound 0.1 µM
  viability, T/C: 2.23%
Second compound 3.16 µM, first compound 0.316 µM
  viability, T/C: 2.86%
Second compound 3.16 µM, first compound 1 µM
  viability, T/C: 2.81%
Second compound 3.16 µM, first compound 3.16 µM
  viability, T/C: 2.28%
Second compound 3.16 µM, first compound 10 µM
  viability, T/C: 2.17%
Second compound 10 µM, first compound 0.0316 µM
  viability, T/C: 1.84%
Second compound 10 µM, first compound 0.1 µM
  viability, T/C: 2.38%
Second compound 10 µM, first compound 0.316 µM
  viability, T/C: 2.16%
Second compound 10 µM, first compound 1 µM
  viability, T/C: 2.22%
Second compound 10 µM, first compound 3.16 µM
  viability, T/C: 2.3%
Second compound 10 µM, first compound 10 µM
  viability, T/C: 2.4%
